Reference: patent publication US10525041B2, “Fluoroalkyl-substituted aryltriazole derivatives and uses thereof” (BAYER PHARMA AKTIENGESELLSCHAFT, priority 2016, dated 2020)

How the values were obtained:
human V1a receptor = molecular target: T1, human V1a receptor (Homo sapiens, UniProt P37288); test: Cellular in vitro assay for vasopressin receptor activity, V1a cell line (aequorin luminescence); assay type: cell-based; settings: for IC50: CHO cell line transfected with human V1a receptor, agonist [Arg8]-vasopressin at EC50 concentration, read-out: IC50hV1a; for ratio IC50 hV2/hV1a: ratio of the IC50 on human V2 to the IC50 on human V1a
T1 construct: expressed in transfected cells; host or cells: CHO K1 (ATCC), also stably transfected with a modified aequorin
T1 sequence (P37288 whole entry): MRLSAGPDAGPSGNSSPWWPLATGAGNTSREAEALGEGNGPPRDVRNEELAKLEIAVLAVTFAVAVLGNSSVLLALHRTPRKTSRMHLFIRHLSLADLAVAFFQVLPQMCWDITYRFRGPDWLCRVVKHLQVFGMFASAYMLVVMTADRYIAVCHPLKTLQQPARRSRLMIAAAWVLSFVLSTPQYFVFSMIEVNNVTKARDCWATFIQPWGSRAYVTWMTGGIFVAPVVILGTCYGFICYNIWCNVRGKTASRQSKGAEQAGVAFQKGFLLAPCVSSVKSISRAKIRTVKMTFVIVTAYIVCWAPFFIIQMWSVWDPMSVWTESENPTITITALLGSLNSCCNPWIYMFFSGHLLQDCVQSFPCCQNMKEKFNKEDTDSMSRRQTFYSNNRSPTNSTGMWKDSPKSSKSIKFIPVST
In short: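 CHO K1 cells stably expressing human V1a receptor with aequorin photoprotein, loaded overnight with coelenterazine. Compounds preincubated 10 min at various concentrations, then challenged with [Arg^8]-vasopressin at EC50 concentration. Calcium-driven luminescence read immediately; IC50 values derived.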

human V2 receptor = molecular target: T2, human V2 receptor (Homo sapiens, UniProt P30518); test: Cellular in vitro assay for vasopressin receptor activity, V2 cell line (CRE-luciferase); assay type: cell-based; settings: CHO cell line transfected with human V2 receptor; agonist [Arg8]-vasopressin at EC50 concentration, 3 hours; read-out: IC50hV2
T2 construct: expressed in transfected cells; host or cells: CHO K1 (ATCC) line expressing firefly luciferase under a CRE-responsive promoter
T2 sequence (P30518 whole entry): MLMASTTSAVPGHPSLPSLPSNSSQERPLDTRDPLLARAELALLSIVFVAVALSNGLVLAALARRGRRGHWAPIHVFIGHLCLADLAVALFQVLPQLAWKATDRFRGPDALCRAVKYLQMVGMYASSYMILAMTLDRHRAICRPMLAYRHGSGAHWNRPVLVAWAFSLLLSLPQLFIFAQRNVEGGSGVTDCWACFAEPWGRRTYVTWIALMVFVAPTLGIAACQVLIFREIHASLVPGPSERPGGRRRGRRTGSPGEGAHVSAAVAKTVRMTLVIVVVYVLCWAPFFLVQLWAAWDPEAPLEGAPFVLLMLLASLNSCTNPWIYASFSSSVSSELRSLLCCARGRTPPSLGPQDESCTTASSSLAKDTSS

IC50 (human V1a receptor) [nM] | ratio IC50 hV2/hV1a (human V1a receptor) | IC50 (human V2 receptor) [nM] | Compound
0.71 | 1.2 | 0.84 | Cc1ccccc1-n1nc(Cn2nc(-c3ccc(Cl)cc3)n(C[C@H](O)C(F)(F)F)c2=O)nc1C(C)F (mixture of isomers) [Example 34, 5-(4-Chlorophenyl)-2-({5-[1-fluoroethyl]-1-(2-methylphenyl)-1H-1,2,4-triazol-3-yl}methyl)-4-[(2S)-3,3,3-trifluoro-2-hydroxypropyl]-2,4-dihydro-3H-1,2,4-triazol-3-one]
1.85 | 0.4 | 0.76 | CCc1ccccc1-n1nc(Cn2nc(-c3ccc(Cl)cc3)n(C[C@H](O)C(F)(F)F)c2=O)nc1C(C)F (mixture of isomers) [Example 28, 5-(4-Chlorophenyl)-2-({1-(2-ethylphenyl)-5-[1-fluoroethyl]-1H-1,2,4-triazol-3-yl}methyl)-4-[(2S)-3,3,3-trifluoro-2-hydroxypropyl]-2,4-dihydro-3H-1,2,4-triazol-3-one]
9.7 | 0.2 | 1.73 | CC(F)c1nc(Cn2nc(-c3ccc(Cl)cc3)n(C[C@H](O)C(F)(F)F)c2=O)nn1-c1cccc(F)c1 (single isomer, unassigned) [Example 14]
36 | 0.1 | 2.59 | O=c1n(Cc2nc(C(F)F)n(-c3cccc(Cl)c3)n2)nc(-c2ccc(Cl)cc2)n1C[C@H](O)C(F)(F)F [Example 50, 5-(4-Chlorophenyl)-2-{[1-(3-chlorophenyl)-5-(difluoromethyl)-1H-1,2,4-triazol-3-yl]methyl}-4-[(2S)-3,3,3-trifluoro-2-hydroxypropyl]-2,4-dihydro-3H-1,2,4-triazol-3-one]
3.75 | 8.8 | 33 | CC(F)c1nc(Cn2nc(-c3ccc(Cl)cc3)n(C[C@H](O)C(F)(F)F)c2=O)nn1-c1ccccc1C(F)(F)F (single isomer, unassigned) [Example 23]
0.85 | 6.4 | 5.4 | O=c1n(Cc2nc(C(F)(F)C3(O)CCCC3)n(-c3ccccc3Cl)n2)nc(-c2ccc(Cl)cc2)n1C[C@H](O)C(F)(F)F [Example 75, 5-(4-Chlorophenyl)-2-({1-(2-chlorophenyl)-5-[difluoro(1-hydroxycyclopentyl)methyl]-1H-1,2,4-triazol-3-yl}methyl)-4-[(2S)-3,3,3-trifluoro-2-hydroxypropyl]-2,4-dihydro-3H-1,2,4-triazol-3-one]
60 | 0.1 | 5.23 | CC(F)(F)c1nc(Cn2nc(-c3ccc(Cl)cc3)n(C[C@H](O)C(F)(F)F)c2=O)nn1-c1cccc(Cl)c1 [Example 55, 5-(4-Chlorophenyl)-2-{[1-(3-chlorophenyl)-5-(1,1-difluoroethyl)-1H-1,2,4-triazol-3-yl]methyl}-4-[(2S)-3,3,3-trifluoro-2-hydroxypropyl]-2,4-dihydro-3H-1,2,4-triazol-3-one]
16 | 0.0 | 0.58 | CC(F)c1nc(Cn2nc(-c3ccc(Cl)cc3)n(C[C@H](O)C(F)(F)F)c2=O)nn1-c1cccc(Cl)c1 (mixture of isomers) [Example 16, 5-(4-Chlorophenyl)-2-({1-(3-chlorophenyl)-5-[1-fluoroethyl]-1H-1,2,4-triazol-3-yl}methyl)-4-[(2S)-3,3,3-trifluoro-2-hydroxypropyl]-2,4-dihydro-3H-1,2,4-triazol-3-one]
6.95 | 10.8 | 74.8 | CC(F)c1nc(Cn2nc(-c3ccc(Cl)cc3)n(C[C@H](O)C(F)(F)F)c2=O)nn1-c1cnccc1Cl (single isomer, unassigned) [Example 5]
2.4 | 3.7 | 8.9 | CC(F)c1nc(Cn2nc(-c3ccc(Cl)cc3)n(C[C@H](O)C(F)(F)F)c2=O)nn1-c1ccccc1OC(F)F (single isomer, unassigned) [Example 32]
0.65 | 1.5 | 0.98 | Cc1ccccc1-n1nc(Cn2nc(-c3ccc(Cl)cc3)n(C[C@H](O)C(F)(F)F)c2=O)nc1C(C)F (single isomer, unassigned) [Example 36]
0.93 | 12.2 | 11.2 | CC(F)(F)c1nc(Cn2nc(-c3ccc(Cl)cc3)n(C[C@H](O)C(F)(F)F)c2=O)nn1-c1cnccc1Cl [Example 54, 5-(4-Chlorophenyl)-2-{[1-(4-chloropyridin-3-yl)-5-(1,1-difluoroethyl)-1H-1,2,4-triazol-3-yl]methyl}-4-[(2S)-3,3,3-trifluoro-2-hydroxypropyl]-2,4-dihydro-3H-1,2,4-triazol-3-one]
1.4 | 0.7 | 0.98 | CSc1ccccc1-n1nc(Cn2nc(-c3ccc(Cl)cc3)n(C[C@H](O)C(F)(F)F)c2=O)nc1C(C)(F)F [Example 74, 5-(4-Chlorophenyl)-2-({5-(1,1-difluoroethyl)-1-[2-(methylsulfanyl)phenyl]-1H-1,2,4-triazol-3-yl}methyl)-4-[(2S)-3,3,3-trifluoro-2-hydroxypropyl]-2,4-dihydro-3H-1,2,4-triazol-3-one]
82 | 2.0 | 165 | CC(F)c1nc(Cn2nc(-c3ccc(Cl)cc3)n(C[C@H](O)C(F)(F)F)c2=O)nn1-c1ccccc1C#N (mixture of isomers) [Example 38, 2-{3-({3-(4-Chlorophenyl)-5-oxo-4-[(2S)-3,3,3-trifluoro-2-hydroxypropyl]-4,5-dihydro-1H-1,2,4-triazol-1-yl}methyl)-5-[1-fluoroethyl]-1H-1,2,4-triazol-1-yl}benzonitrile]
2.2 | 1.0 | 2.25 | CCc1ccccc1-n1nc(Cn2nc(-c3ccc(Cl)cc3)n(C[C@H](O)C(F)(F)F)c2=O)nc1C(C)(F)F [Example 62, 5-(4-Chlorophenyl)-2-{[5-(1,1-difluoroethyl)-1-(2-ethylphenyl)-1H-1,2,4-triazol-3-yl]methyl}-4-[(2S)-3,3,3-trifluoro-2-hydroxypropyl]-2,4-dihydro-3H-1,2,4-triazol-3-one]
2.15 | 0.8 | 1.8 | CC(F)c1nc(Cn2nc(-c3ccc(Cl)cc3)n(C[C@H](O)C(F)(F)F)c2=O)nn1-c1ccccc1OC(F)F (single isomer, unassigned) [Example 33]
0.91 | 0.4 | 0.37 | CCc1ccccc1-n1nc(Cn2nc(-c3ccc(Cl)cc3)n(C[C@H](O)C(F)(F)F)c2=O)nc1C(C)F (single isomer, unassigned) [Example 29]
1.06 | 1.6 | 1.7 | Cc1ccccc1-n1nc(Cn2nc(-c3ccc(Cl)cc3)n(C[C@H](O)C(F)(F)F)c2=O)nc1C(C)(F)F [Example 64, 5-(4-Chlorophenyl)-2-{[5-(1,1-difluoroethyl)-1-(2-methylphenyl)-1H-1,2,4-triazol-3-yl]methyl}-4-[(2S)-3,3,3-trifluoro-2-hydroxypropyl]-2,4-dihydro-3H-1,2,4-triazol-3-one]
1.04 | 2.8 | 2.93 | CC(F)c1nc(Cn2nc(-c3ccc(Cl)cc3)n(C[C@H](O)C(F)(F)F)c2=O)nn1-c1c(F)cccc1Cl (mixture of isomers) [Example 44, 2-({1-(2-chloro-6-fluorophenyl)-5-[1-fluoroethyl]-1H-1,2,4-triazol-3-yl}methyl)-5-(4-Chlorophenyl)-4-[(2S)-3,3,3-trifluoro-2-hydroxypropyl]-2,4-dihydro-3H-1,2,4-triazol-3-one]
3.3 | 1.3 | 4.23 | CC(F)(F)c1nc(Cn2nc(-c3ccc(Cl)cc3)n(C[C@H](O)C(F)(F)F)c2=O)nn1-c1c(Cl)cccc1Cl [Example 68, 5-(4-Chlorophenyl)-2-{[1-(2,6-dichlorophenyl)-5-(1,1-difluoroethyl)-1H-1,2,4-triazol-3-yl]methyl}-4-[(2S)-3,3,3-trifluoro-2-hydroxypropyl]-2,4-dihydro-3H-1,2,4-triazol-3-one]
41 | 0.3 | 11.9 | CCc1cccc(C)c1-n1nc(Cn2nc(-c3ccc(Cl)cc3)n(C[C@H](O)C(F)(F)F)c2=O)nc1C(C)(F)F [Example 73, 5-(4-Chlorophenyl)-2-{[5-(1,1-difluoroethyl)-1-(2-ethyl-6-methylphenyl)-1H-1,2,4-triazol-3-yl]methyl}-4-[(2S)-3,3,3-trifluoro-2-hydroxypropyl]-2,4-dihydro-3H-1,2,4-triazol-3-one]
0.36 | 3.8 | 1.34 | CC(F)c1nc(Cn2nc(-c3ccc(Cl)cc3)n(C[C@H](O)C(F)(F)F)c2=O)nn1-c1ccccc1Cl (single isomer, unassigned) [Example 2]
2.7 | 6.3 | 17 | CC(F)c1nc(Cn2nc(-c3ccc(Cl)cc3)n(C[C@H](O)C(F)(F)F)c2=O)nn1-c1ccccc1OC(F)(F)F (mixture of isomers) [Example 25, 5-(4-Chlorophenyl)-2-({5-[1-fluoroethyl]-1-[2-(trifluoromethoxy)phenyl]-1H-1,2,4-triazol-3-yl}methyl)-4-[(2S)-3,3,3-trifluoro-2-hydroxypropyl]-2,4-dihydro-3H-1,2,4-triazol-3-one]
